# Where a name gives a salt, the structure may show the parent alone.
# Molecular target: T1, recombinant full-length USP7 (Homo sapiens, UniProt Q93009)
# T1 construct: A 25 μl reaction volume containing recombinant full-length USP7 (62 pM)
# Assay: USP7-mediated ubiquitin-rhodamine cleavage assay
# Type: biochemical
# Conditions: recombinant full-length USP7 62 pM; ubiquitin-rhodamine 100 nM; 30-minute incubation with compound, 1 hour reaction at room temperature; read-out: Potency: USP7 IC50
# Outline: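 Rhodamine fluorescence read-out after acetic acid stop; IC50 by 4-parameter nonlinear regression. Enzyme at 62 pM, substrate ubiquitin-rhodamine 100 nM final, 1 h at room temperature in the dark, after 30 min compound preincubation. Buffer: HEPES pH 7.3, NaCl, TCEP, BSA; 1% DMSO.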
# T1 sequence (Q93009 whole entry): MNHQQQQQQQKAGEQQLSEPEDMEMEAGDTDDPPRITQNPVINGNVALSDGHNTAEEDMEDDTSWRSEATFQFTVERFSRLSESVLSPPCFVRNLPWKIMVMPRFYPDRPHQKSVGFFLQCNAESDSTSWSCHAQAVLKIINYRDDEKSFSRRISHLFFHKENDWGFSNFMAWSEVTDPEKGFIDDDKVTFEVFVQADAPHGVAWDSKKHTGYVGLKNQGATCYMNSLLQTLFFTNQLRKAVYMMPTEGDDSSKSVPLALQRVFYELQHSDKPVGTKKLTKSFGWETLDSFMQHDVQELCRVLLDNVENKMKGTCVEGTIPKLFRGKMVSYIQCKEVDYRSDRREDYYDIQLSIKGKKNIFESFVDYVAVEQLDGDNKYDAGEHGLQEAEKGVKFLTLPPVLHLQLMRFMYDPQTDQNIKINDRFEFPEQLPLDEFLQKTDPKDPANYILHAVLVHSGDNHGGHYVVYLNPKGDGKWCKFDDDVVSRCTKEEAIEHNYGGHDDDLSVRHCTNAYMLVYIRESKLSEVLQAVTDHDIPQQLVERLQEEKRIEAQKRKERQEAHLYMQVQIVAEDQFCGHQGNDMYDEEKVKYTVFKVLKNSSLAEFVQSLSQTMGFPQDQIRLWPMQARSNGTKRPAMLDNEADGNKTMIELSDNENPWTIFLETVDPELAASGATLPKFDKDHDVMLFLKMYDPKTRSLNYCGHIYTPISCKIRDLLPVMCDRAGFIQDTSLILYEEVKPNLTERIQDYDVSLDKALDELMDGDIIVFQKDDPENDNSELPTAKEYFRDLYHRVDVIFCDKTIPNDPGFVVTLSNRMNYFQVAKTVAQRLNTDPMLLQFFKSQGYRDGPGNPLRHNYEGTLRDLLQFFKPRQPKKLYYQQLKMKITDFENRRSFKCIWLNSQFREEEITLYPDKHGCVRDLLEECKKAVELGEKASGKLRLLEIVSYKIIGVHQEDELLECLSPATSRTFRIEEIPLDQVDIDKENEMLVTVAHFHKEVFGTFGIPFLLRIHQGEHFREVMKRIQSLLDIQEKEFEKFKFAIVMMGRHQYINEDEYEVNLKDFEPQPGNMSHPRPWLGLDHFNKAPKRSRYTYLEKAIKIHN
row,IC50,Compound
1,10 to 30 µM,"Cc1cc(Cl)cc(-c2ccnc3ccsc23)c1OC1CCCCNC1 (stereo not drawn) [Example 264, 7-(2-(Azepan-3-yloxy)-5-chloro-3-methylphenyl)thieno[3,2-b]pyridine]"
2,1 to 10 µM,"Cc1cc(Cl)cc(-c2ccnc3cc(CO)sc23)c1O[C@@H]1CNC[C@@H]1F [Example 57, (7-(5-Chloro-2-(((3R,4S)-4-fluoropyrrolidin-3-yl)oxy)-3-methylphenyl)thieno[3,2-b]pyridin-2-yl)methanol]"
3,< 1 µM,"CCOC(=O)NN(Cc1cc2nccc(-c3cc(Cl)cc(C)c3O[C@@H]3CCNC[C@@H]3C)c2s1)C(=O)OCC [Example 402, ethyl N-[[7-[5-chloro-3-methyl-2-[[(3S,4R)-3-methyl-4-piperidyl]oxy]phenyl]thieno[3,2-b]pyridin-2-yl]methyl]-N-(ethoxycarbonylamino)carbamate]"
4,< 1 µM,"3-((7-(5-Chloro-3-methyl-2-(((1R,3R)-3-morpholinocyclopentyl)oxy)phenyl)thieno[3,2-b]pyridin-2-yl)methyl)-1-(2,2,2-trifluoroethyl)pyrimidine-2,4(1H,3H)-dione [Example 246]"
5,1 to 10 µM,"CC(=O)NCc1cc2nccc(-c3cc(Cl)cc(C)c3O[C@H]3CCCNC3)c2s1 [Example 263, (S)—N-((7-(5-Chloro-3-methyl-2-(piperidin-3-yloxy)phenyl)thieno[3,2-b]pyridin-2-yl)methyl)acetamide]"
6,< 1 µM,"Cc1cc(C#N)cc(-c2ccnc3cc(CN4C(=O)CCS4(=O)=O)sc23)c1O[C@@H]1CNC[C@@H]1F [Example 114, 3-(2-((1,1-Dioxido-3-oxoisothiazolidin-2-yl)methyl)thieno[3,2-b]pyridin-7-yl)-4-(((3R,4S)-4-fluoropyrrolidin-3-yl)oxy)-5-methylbenzonitrile]"
7,< 1 µM,"Cc1cc(Cl)cc(-c2ncnc3cc(CN4C(=O)CCCC4=O)sc23)c1O[C@H]1CCCNC1 [Example 260, (S)-1-((4-(5-Chloro-3-methyl-2-(piperidin-3-yloxy)phenyl)thieno[3,2-d]pyrimidin-6-yl)methyl)piperidine-2,6-dione]"
8,< 1 µM,"Cc1cc(C#N)cc(-c2ccnc3cc(CN4C(=O)CCC4=O)sc23)c1O[C@@H]1CNC[C@@H]1F [Example 97, 3-(2-((2,5-Dioxopyrrolidin-1-yl)methyl)thieno[3,2-b]pyridin-7-yl)-4-(((3R,4S)-4-fluoropyrrolidin-3-yl)oxy)-5-methylbenzonitrile]"
9,< 1 µM,"Cc1cc(Cl)cc(-c2ncnc3cc(CN4C(=O)C5C(C4=O)C5(C)C)sc23)c1O[C@@H]1C[C@H]2CN[C@@H]1C2 (stereo partly drawn) [Example 354, 3-[[4-[2-[[(1S,4R,5R)-3-azabicyclo[2.2.1]heptan-5-yl]oxy]-5-chloro-3-methyl-phenyl]thieno[3,2-d]pyrimidin-6-yl]methyl]-6,6-dimethyl-3-azabicyclo[3.1.0]hexane-2,4-dione dihydrochloride]"
10,< 1 µM,"Cc1cc(Cl)cc(-c2ncnc3cc(CN4C(=O)C5C(C4=O)C5(C)C)sc23)c1O[C@H]1CCCN[C@@H]1C (stereo partly drawn) [Example 360, 3-[[4-[5-chloro-3-methyl-2-[[(2R,3S)-2-methyl-3-piperidyl]oxy]phenyl]thieno[3,2-d]pyrimidin-6-yl]methyl]-6,6-dimethyl-3-azabicyclo[3.1.0]hexane-2,4-dione]"
11,< 1 µM,"Cc1cc(Cl)cc(-c2ccnc3cc(CN4C(=O)CCC4=O)sc23)c1OC1CNC(C)(C)C1 (stereo not drawn) [Example 130, 1-((7-(5-Chloro-2-((5,5-dimethylpyrrolidin-3-yl)oxy)-3-methylphenyl)thieno[3,2-b]pyridin-2-yl)methyl)pyrrolidine-2,5-dione]"
12,< 1 µM,"Cc1cc(Cl)cc(-c2ccnc3cc(CN4C(=O)CCC4=O)sc23)c1O[C@@H]1CCNC[C@@H]1F [Example 209, 1-((7-(5-Chloro-2-(((3S,4R)-3-fluoropiperidin-4-yl)oxy)-3-methylphenyl)thieno[3,2-b]pyridin-2-yl)methyl)pyrrolidine-2,5-dione]"
13,1 to 10 µM,"O=C1CNC(=O)N1Cc1cc2ncnc(-c3cccc(OC(F)(F)F)c3)c2s1 [Example 403, 3-[[4-[3-(trifluoromethoxy)phenyl]thieno[3,2-d]pyrimidin-6-yl]methyl]imidazolidine-2,4-dione]"
14,10 to 30 µM,"Cc1cc(Cl)cc(-c2ccnc3cc(CO)sc23)c1O[C@@H]1CN[C@@H](C)C1 [Example 60, (7-(5-Chloro-3-methyl-2-(((3S,5S)-5-methylpyrrolidin-3-yl)oxy)phenyl)thieno[3,2-b]pyridin-2-yl)methanol]"
15,1 to 10 µM,"CCc1cc(Cl)cc(-c2ccnc3cc(CO)sc23)c1OCC1CNC1 [Example 22, (7-(2-(Azetidin-3-ylmethoxy)-5-chloro-3-ethylphenyl)thieno[3,2-b]pyridin-2-yl)methanol]"

# Same assay, conditions: recombinant full-length USP7 62 pM; ubiquitin-rhodamine 100 nM; 30-minute incubation, 1 hour reaction at room temperature; read-out: Potency (USP7 IC50)
row,Compound,IC50
1,"COCC1(N)CC(Oc2c(C)cc(Cl)cc2-c2ccnc3cc(Cn4c(=O)ccn(CC(F)(F)F)c4=O)sc23)C1 (stereo not drawn) [Example 699, 3-[[7-[2-[3-amino-3-(methoxymethyl)cyclobutoxy]-5-chloro-3-methyl-phenyl]thieno[3,2-b]pyridin-2-yl]methyl]-1-(2,2,2-trifluoroethyl)pyrimidine-2,4-dione]",< 1 µM

# Same assay, conditions: recombinant full-length USP7 62 pM; ubiquitin-rhodamine 100 nM; 30-minute pre-incubation, 1 hour reaction at room temperature; read-out: Potency (USP7 IC50)
row,IC50,Compound
1,< 1 µM,"Cc1cc(Cl)cc(-c2ccnc3cc(Cn4c(=O)ccn(C)c4=O)sc23)c1O[C@H]1CCNC[C@]1(C)F [Example 545, 3-[[7-[5-chloro-2-[[(3S,4S)-3-fluoro-3-methyl-4-piperidyl]oxy]-3-methyl-phenyl]thieno[3,2-b]pyridin-2-yl]methyl]-1-methyl-pyrimidine-2,4-dione; 2,2,2-trifluoroacetic acid]"
2,< 1 µM,"Cc1cc(Cl)cc(-c2ccnc3cc(Cn4c(=O)ccn(C)c4=O)sc23)c1O[C@@H]1CCN(CCO)C[C@@H]1C [Example 475, 3-[[7-[5-chloro-2-[[(3S,4R)-1-(2-hydroxyethyl)-3-methyl-4-piperidyl]oxy]-3-methyl-phenyl]thieno[3,2-b]pyridin-2-yl]methyl]-1-methyl-pyrimidine-2,4-dione]"
3,< 1 µM,"Cc1cc(Cl)cc(-c2ccnc3cc(Cn4c(=O)ccn(CC(F)(F)F)c4=O)sc23)c1O[C@@H]1CCN(C2CCOC2)C[C@H]1C (stereo partly drawn) [Example 608, 3-[[7-[5-chloro-3-methyl-2-[[(3R,4R)-3-methyl-1-tetrahydrofuran-3-yl-4-piperidyl]oxy]phenyl]thieno[3,2-b]pyridin-2-yl]methyl]-1-(2,2,2-trifluoroethyl)pyrimidine-2,4-dione]"
4,< 1 µM,"Cc1cc(Cl)cc(-c2ccnc3cc(Cn4c(=O)ccn(C)c4=O)sc23)c1O[C@@H]1CCN[C@@H](C)C1 [Example 495, 3-[[7-[5-chloro-3-methyl-2-[[(2S,4R)-2-methyl-4-piperidyl]oxy]phenyl]thieno[3,2-b]pyridin-2-yl]methyl]-1-methyl-pyrimidine-2,4-dione]"
5,< 1 µM,"Cc1cc(Cl)cc(-c2ccnc3cc(CN4C(=O)CCC4=O)sc23)c1OC1CCCC(N)C1 (stereo not drawn) [Example 427, 1-[[7-[2-(3-aminocyclohexoxy)-5-chloro-3-methyl-phenyl]thieno[3,2-b]pyridin-2-yl]methyl]pyrrolidine-2,5-dione; 2,2,2-trifluoroacetic acid]"
6,< 1 µM,"CCN1CC[C@H](Oc2c(C)cc(Cl)cc2-c2ccnc3cc(Cn4c(=O)ccn(C)c4=O)sc23)CC1(C)C [Example 491, 3-[[7-[5-chloro-2-[[(4S)-1-ethyl-2,2-dimethyl-4-piperidyl]oxy]-3-methyl-phenyl]thieno[3,2-b]pyridin-2-yl]methyl]-1-methyl-pyrimidine-2,4-dione; 2,2,2-trifluoroacetic acid]"
7,< 1 µM,"Cc1cc(Cl)cc(-c2ccnc3cc(Cn4c(=O)ccn(CC(F)(F)F)c4=O)sc23)c1OC1CCCCC1 [Example 665, 3-[[7-[5-chloro-2-(cyclohexoxy)-3-methyl-phenyl]thieno[3,2-b]pyridin-2-yl]methyl]-1-(2,2,2-trifluoroethyl)pyrimidine-2,4-dione]"
8,< 1 µM,"Cc1cc(Cl)cc(-c2ccnc3cc(Cn4c(=O)ccn(CC(F)(F)F)c4=O)sc23)c1OCC1COC1 [Example 669, 3-[[7-[5-chloro-3-methyl-2-(oxetan-3-ylmethoxy)phenyl]thieno[3,2-b]pyridin-2-yl]methyl]-1-(2,2,2-trifluoroethyl)pyrimidine-2,4-dione]"
9,< 1 µM,"Cc1cc(Cl)cc(-c2ccnc3cc(Cn4c(=O)ccn(C)c4=O)sc23)c1OC1CNCCC1(F)F (stereo not drawn) [Example 514, 3-[[7-[5-chloro-2-[(4,4-difluoro-3-piperidyl)oxy]-3-methyl-phenyl]thieno[3,2-b]pyridin-2-yl]methyl]-1-methyl-pyrimidine-2,4-dione; 2,2,2-trifluoroacetic acid]"

row,Compound,IC50
1,"Cc1cc(Cl)cc(-c2ccnc3cc(Cn4c(=O)ccn(CC(F)(F)F)c4=O)sc23)c1OC1CC(N2CCC(F)(F)CC2)C1 (stereo not drawn) [Example 668, 3-[[7-[5-chloro-2-[3-(4,4-difluoro-1-piperidyl)cyclobutoxy]-3-methyl-phenyl]thieno[3,2-b]pyridin-2-yl]methyl]-1-(2,2,2-trifluoroethyl)pyrimidine-2,4-dione; 2,2,2-trifluoroacetic acid]",< 1 µM
2,"Cc1cc(Cl)cc(-c2ccnc3cc(Cn4c(=O)ccn(CC(F)(F)F)c4=O)sc23)c1OC1CC(N2CCOC[C@H]2C)C1 (stereo partly drawn) [Example 657, 3-[[7-[5-chloro-3-methyl-2-[3-[(3R)-3-methylmorpholin-4-yl]cyclobutoxy]phenyl]thieno[3,2-b]pyridin-2-yl]methyl]-1-(2,2,2-trifluoroethyl)pyrimidine-2,4-dione; 2,2,2-trifluoroacetic acid]",< 1 µM
